From article PMC9760430, “A stapled chromogranin A-derived peptide homes in on tumors that express αvβ6 or αvβ8 integrins” (International Journal of Biological Sciences, 2023) come the findings set out here.

The target of the test is T1, murine αvβ8 (Mus musculus, UniProt P43406+Q0VBD0).
T1 construct: purchased Bio-Techne
T1 sequence (P43406 31-988 limits assumed): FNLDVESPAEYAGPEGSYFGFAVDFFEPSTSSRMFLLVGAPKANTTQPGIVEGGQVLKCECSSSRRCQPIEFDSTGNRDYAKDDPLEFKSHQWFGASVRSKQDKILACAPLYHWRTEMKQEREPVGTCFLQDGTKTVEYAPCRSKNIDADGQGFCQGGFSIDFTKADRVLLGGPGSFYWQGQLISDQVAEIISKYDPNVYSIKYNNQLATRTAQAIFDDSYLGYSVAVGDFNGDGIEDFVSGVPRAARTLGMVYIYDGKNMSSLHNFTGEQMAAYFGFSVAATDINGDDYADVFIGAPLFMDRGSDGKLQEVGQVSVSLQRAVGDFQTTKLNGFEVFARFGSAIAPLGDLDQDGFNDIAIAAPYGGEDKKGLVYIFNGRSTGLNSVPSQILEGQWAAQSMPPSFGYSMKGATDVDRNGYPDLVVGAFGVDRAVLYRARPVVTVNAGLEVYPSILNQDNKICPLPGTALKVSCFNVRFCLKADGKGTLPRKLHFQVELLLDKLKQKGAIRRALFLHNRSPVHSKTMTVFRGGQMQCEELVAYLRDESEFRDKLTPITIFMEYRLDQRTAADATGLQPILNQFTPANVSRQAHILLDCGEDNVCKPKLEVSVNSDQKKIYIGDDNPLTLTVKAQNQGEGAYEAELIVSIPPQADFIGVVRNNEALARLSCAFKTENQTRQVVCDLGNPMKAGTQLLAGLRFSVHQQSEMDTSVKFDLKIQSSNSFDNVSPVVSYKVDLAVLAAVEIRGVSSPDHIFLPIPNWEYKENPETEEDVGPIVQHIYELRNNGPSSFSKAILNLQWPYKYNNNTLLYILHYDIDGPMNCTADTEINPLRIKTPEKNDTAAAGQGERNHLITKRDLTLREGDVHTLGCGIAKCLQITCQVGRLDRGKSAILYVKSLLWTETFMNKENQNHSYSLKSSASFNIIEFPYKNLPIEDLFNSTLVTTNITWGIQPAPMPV
T1 sequence (Q0VBD0 43-682 limits assumed): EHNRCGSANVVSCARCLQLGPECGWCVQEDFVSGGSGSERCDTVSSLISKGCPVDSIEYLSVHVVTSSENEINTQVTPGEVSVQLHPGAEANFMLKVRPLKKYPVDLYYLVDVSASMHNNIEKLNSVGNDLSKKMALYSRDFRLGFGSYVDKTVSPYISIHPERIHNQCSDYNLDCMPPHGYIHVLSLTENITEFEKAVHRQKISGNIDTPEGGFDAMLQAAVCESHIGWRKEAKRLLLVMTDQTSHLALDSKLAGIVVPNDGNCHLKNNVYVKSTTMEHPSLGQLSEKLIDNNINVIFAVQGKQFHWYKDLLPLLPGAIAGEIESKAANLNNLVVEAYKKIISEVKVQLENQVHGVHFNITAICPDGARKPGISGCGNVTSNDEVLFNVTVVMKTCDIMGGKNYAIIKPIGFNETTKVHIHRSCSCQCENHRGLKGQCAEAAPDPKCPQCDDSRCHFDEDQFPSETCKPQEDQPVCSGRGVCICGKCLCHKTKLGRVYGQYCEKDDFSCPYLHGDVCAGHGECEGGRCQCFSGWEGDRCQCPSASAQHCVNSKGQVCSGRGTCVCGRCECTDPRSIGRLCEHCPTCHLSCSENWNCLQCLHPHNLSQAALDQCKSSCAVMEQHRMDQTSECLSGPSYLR
Nature of the test: direct integrin binding assay of peptide-IRDye conjugates, murine αvβ8-coated plates. The note with it: plates coated with recombinant murine αvβ8; conjugate 0.01-100 nM, 1 h; bound NIR fluorescence; mean ± SE, n = 3 experiments. On the procedure:
The affinity of peptide-IRDye conjugates for αvβ6 and αvβ8 integrins was determined by a direct binding assay using microtiter plates coated with αvβ6 or αvβ8 (Bio-Techne). After 1 h of incubation, the plates were washed; bound fluorescence was quantified by scanning the plates with an Odyssey CLx near-infrared fluorescence imaging system (LI-COR).
A control conjugate with a cysteine in place of the peptide was also prepared in parallel. […]
The simplified molecular-input line-entry system (SMILES) of 5a-, 2a-, Cys- and 5a-Scr- […]
The concentration of each conjugate was quantified by spectrophotometric analysis at 774 nm (molar absorption coefficient, 240,000 M-1, cm-1) (Figure S3B). The final yield of 5a-IRDye […]
Binding of peptide-IRDye conjugates to avb6 and avb8 integrin […]
conjugates were added to the microtiterplates and incubated at room temperature for 1 h (see Experimental Section). After washing, bound fluorescence was measured using an Odyssey CLx (LI-COR) scanner. Representative images of the scanned plates and quantification of binding are shown. […]

SMILES strings stand for the structures. Peptide text beside a SMILES is read from it. * marks the point of attachment. X1 = CC1(C)C(/C=C/C2=C(Oc3ccc(S(=O)(=O)O)cc3)C(=C\C=C3/N(CCCCCC(=O)NCCN4C(=O)CC(*)C4=O)c4ccc(S(=O)(=O)O)cc4C3(C)C)/CCC2)=[N+](CCCCS(=O)(=O)O)c2ccc(S(=O)(=O)[O-])cc21

What is called EC50 is the concentration at which the effect is half-maximal.

With `CC1(C)C(/C=C/C2=C(Oc3ccc(S(=O)(=O)O)cc3)C(=C\C=C3/N(CCCCCC(=O)NCCN4C(=O)CC(SC[C@H](N)C(=O)O)C4=O)c4ccc(S(=O)(=O)O)cc4C3(C)C)/CCC2)=[N+](CCCCS(=O)(=O)O)c2ccc(S(=O)(=O)[O-])cc21` (some centres unmarked) [Cys-IRDye], the 50% effective concentration (EC50) is > 100 nM. The result for `CC[C@H](C)[C@H](NC(=O)[C@H](CCCNC(=N)N)NC(=O)[C@H](CCC(=O)O)NC(=O)[C@H](CCC(=O)O)NC(=O)CNC(=O)[C@H](CCCNC(=N)N)NC(=O)[C@H](CC(C)C)NC(=O)[C@@H](NC(=O)[C@H](CCC(=O)O)NC(=O)[C@H](Cc1ccccc1)NC(=O)[C@@H](N)CSC1CC(=O)N(CCNC(=O)CCCCCN2/C(=C\C=C3\CCCC(/C=C/C4=[N+](CCCCS(=O)(=O)O)c5ccc(S(=O)(=O)[O-])cc5C4(C)C)=C3Oc3ccc(S(=O)(=O)O)cc3)C(C)(C)c3cc(S(=O)(=O)O)ccc32)C1=O)[C@@H](C)O)C(=O)N[C@@H](CC(C)C)C(=O)N[C@@H](CO)C(=O)N[C@H](C(=O)N[C@@H](CC(C)C)C(=O)N[C@@H](CCCNC(=N)N)C(=O)N[C@@H](Cc1c[nH]cn1)C(=O)N[C@@H](CCC(N)=O)C(=O)N[C@@H](CC(N)=O)C(=O)N[C@@H](CC(C)C)C(=O)N[C@@H](CC(C)C)C(=O)N[C@@H](CCCCN)C(=O)N[C@@H](CCC(=O)O)C(=O)N[C@@H](CC(C)C)C(=O)N[C@@H](CCC(N)=O)C(=O)N[C@@H](CC(=O)O)C(N)=O)[C@@H](C)CC` (some centres unmarked) [2a-IRDye] (H-C(X1)FETLRGEERILSILRHQNLLKELQD-NH2) reads > 100 nM.
